Reference: paper PMC7413254 (Nature Communications, 2020)
Values joined by “and” are separate entries in the source; they are usually repeats but may differ in a detail not shown here. Equal values may be shown once. Read-outs that look alike come from different tables or passages of the source.

Columns and labels:
non-expressing oocytes [1] = experiment: cells; assay type: cell-based, Xenopus laevis; conditions: Xenopus laevis, Oocyte
Summary of the method: (§1)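 Oocytes expressing PfCRT isoforms, or non-expressing controls, were incubated 1.5 h at 27.5 °C in ND96 buffer pH 5.5 (96 mM NaCl, 2 mM KCl, 1 mM MgCl2, 1.8 mM CaCl2, 10 mM MES, 10 mM Tris-base), measuring uptake from acidic medium into cytosol. Oocytes were washed ice-cold, SDS-lysed and counted by scintillation.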

PfCRT^3D7 [2] = biological target: T1, PfCRT^3D7 (Plasmodium falciparum, UniProt Q8IBZ9); experiment: cell-based; assay type: cell-based
Summary of the method: as §1

PfCRT^Dd2 [3] = biological target: T2, PfCRT^Dd2 (Plasmodium falciparum, UniProt Q9N623, A220S/I356T/K76T/M74I/N326S/N75E/Q271E/R371I); experiment: [3H]CQ uptake into Xenopus oocytes, cis-inhibition by unlabelled solute; assay type: cell-based
Summary of the method: as §1

PfCRT^Ecu1110 [4] = biological target: T3, PfCRT^Ecu1110 (Plasmodium falciparum, UniProt Q9N623, A220S/I356L/K76T/N326D); experiment: as above; assay type: cell-based
Summary of the method: as §1

non-expressing oocytes [5] = assay type: cell-based, Xenopus laevis
Summary of the method: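 Oocytes (ten per treatment, ≥4 independent frogs/days) were preloaded by injecting VF-6 in 25 nL ND96 at pH 5.0, 5.5, 6.0 or 7.0, or Na^+-free choline buffer, then uptake run 1.5 h, 27.5 °C, ND96 pH 5.5 by default. Internal concentrations assumed ~400 nL oocyte volume.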

PfCRT^3D7 [6] = biological target: T1, PfCRT^3D7; experiment: cell-based; assay type: cell-based; remark: listed apart in the source
Summary of the method: (§2)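 Transport measured in Xenopus oocytes expressing the transporters, 1.5 h at 27.5 °C in ND96 pH 5.5 unless noted. For trans-stimulation, VF-6 injected in 25 nL ND96 at pH 5.0–7.0 or Na^+-free (choline) buffer; intracellular levels based on ~400 nL oocyte volume. Ten oocytes per treatment, ≥4 experiments.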

PfCRT^Dd2 [7] = biological target: T2, PfCRT^Dd2; experiment: cell-based; assay type: cell-based; conditions: […]; for activity at 45000 µM: [test solute]i = 45 mM (30 mM for some solutes due to solubility)
Summary of the method: as §2

PfCRT^Ecu1110 [8] = biological target: T3, PfCRT^Ecu1110; experiment: cell-based; assay type: cell-based; conditions: […]
Summary of the method: as §2

PfNT1 = biological target: T4, PfNT1 (Plasmodium falciparum, UniProt Q8IDM6); experiment: cell-based; assay type: cell-based; conditions: […]
T4 construct: expressed in transfected cells; host or cells: Xenopus laevis oocytes (stage V-VI), cRNA-injected
Summary of the method: as §2

PfCRT [9] = experiment: Influx of VF-6 via PfCRT into the oocyte, solutes tested as potential co-substrates; assay type: cell-based, Plasmodium falciparum; parameters: key: X: Compounds that have been tested as potential co-substrates but are not required for influx of VF-6 via PfCRT into the oocyte; conditions: X marks the solute
PfCRT [10] = experiment: Test of solutes as potential co-substrates for influx of VF-6 via PfCRT into the oocyte; assay type: cell-based, Plasmodium falciparum; parameters: key: X: Compounds that have been tested as potential co-substrates but are not required for influx of VF-6 via PfCRT into the oocyte; conditions: X = tested
[11] = read-out: Uptake of [3H]CQ (% PfCRTDd2 control), cis-inhibition, non-expressing oocytes, SEM
[12] = read-out: Uptake of [3H]CQ (% non-expressing oocyte control), cis-inhibition
[13] = read-out: Uptake of [3H]CQ (% PfCRT3D7 control), cis-inhibition
[14] = read-out: Uptake of [3H]CQ (% PfCRTDd2 control), cis-inhibition, PfCRT3D7, SEM
[15] = read-out: PfCRT-mediated [3H]CQ transport, cis-inhibition (% PfCRTDd2 control)
[16] = read-out: Uptake of [3H]CQ (% PfCRTDd2 control), cis-inhibition, PfCRTDd2, SEM
[17] = read-out: PfCRT-mediated [3H]CQ transport, cis-inhibition (% PfCRTEcu1110 control)
[18] = read-out: Uptake of [3H]CQ (% PfCRTDd2 control), cis-inhibition, PfCRTEcu1110, SEM
[19] = read-out: Uptake of [3H]CQ (% PfCRTEcu1110 control), cis-inhibition
[20] = read-out: [3H]CQ transport (% PfCRTEcu1110 control), cis-inhibition, PfCRTEcu1110, SEM
[21] = read-out: PfCRT-mediated [3H]CQ transport, trans-stimulation (% PfCRT3D7 control)
[22] = read-out: Uptake of [3H]CQ (% PfCRT3D7 control), trans-stimulation
[23] = read-out: Uptake of [3H]CQ (% PfCRTDd2 control), trans-stimulation, PfCRT3D7, SEM
[24] = read-out: Uptake of [3H]CQ (% PfCRTDd2 control), trans-stimulation, PfNT1, SEM
[25] = read-out: Uptake of [3H]CQ (% PfNT1 control), trans-stimulation

T2 sequence (Q9N623 whole entry A220S/I356T/K76T/M74I/N326S/N75E/Q271E/R371I): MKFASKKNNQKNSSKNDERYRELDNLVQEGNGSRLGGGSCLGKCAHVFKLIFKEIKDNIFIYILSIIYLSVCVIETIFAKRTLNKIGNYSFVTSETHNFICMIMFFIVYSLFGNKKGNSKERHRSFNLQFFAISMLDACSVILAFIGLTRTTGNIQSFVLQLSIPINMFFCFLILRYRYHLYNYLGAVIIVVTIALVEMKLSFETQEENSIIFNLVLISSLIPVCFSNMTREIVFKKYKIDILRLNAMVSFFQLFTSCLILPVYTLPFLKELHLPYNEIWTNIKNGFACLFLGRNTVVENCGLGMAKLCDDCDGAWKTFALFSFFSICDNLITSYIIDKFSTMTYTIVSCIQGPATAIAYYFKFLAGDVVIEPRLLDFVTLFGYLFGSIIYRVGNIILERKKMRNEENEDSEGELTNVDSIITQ
T3 sequence (Q9N623 whole entry A220S/I356L/K76T/N326D): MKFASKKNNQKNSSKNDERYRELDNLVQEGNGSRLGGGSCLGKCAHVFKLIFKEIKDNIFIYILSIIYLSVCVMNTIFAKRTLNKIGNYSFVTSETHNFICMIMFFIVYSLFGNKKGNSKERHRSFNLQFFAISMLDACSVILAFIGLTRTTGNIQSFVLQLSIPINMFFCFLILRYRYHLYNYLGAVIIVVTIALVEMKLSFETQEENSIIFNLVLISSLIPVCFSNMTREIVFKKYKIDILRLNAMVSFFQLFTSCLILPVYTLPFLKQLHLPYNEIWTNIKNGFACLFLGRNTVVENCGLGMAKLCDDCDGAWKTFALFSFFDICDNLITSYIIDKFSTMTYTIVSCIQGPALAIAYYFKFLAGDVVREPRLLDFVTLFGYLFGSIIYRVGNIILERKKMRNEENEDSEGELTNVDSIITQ
T1 sequence (Q8IBZ9 59-398): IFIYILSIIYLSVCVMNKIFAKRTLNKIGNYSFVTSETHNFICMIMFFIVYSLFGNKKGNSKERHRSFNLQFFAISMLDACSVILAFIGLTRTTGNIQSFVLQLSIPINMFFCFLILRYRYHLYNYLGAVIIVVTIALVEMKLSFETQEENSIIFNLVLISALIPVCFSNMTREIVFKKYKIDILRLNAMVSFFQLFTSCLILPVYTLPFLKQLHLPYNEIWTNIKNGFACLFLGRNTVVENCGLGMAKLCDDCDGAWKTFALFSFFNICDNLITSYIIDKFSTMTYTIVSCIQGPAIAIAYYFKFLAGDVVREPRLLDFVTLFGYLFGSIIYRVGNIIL
T4 sequence (Q8IDM6 whole entry): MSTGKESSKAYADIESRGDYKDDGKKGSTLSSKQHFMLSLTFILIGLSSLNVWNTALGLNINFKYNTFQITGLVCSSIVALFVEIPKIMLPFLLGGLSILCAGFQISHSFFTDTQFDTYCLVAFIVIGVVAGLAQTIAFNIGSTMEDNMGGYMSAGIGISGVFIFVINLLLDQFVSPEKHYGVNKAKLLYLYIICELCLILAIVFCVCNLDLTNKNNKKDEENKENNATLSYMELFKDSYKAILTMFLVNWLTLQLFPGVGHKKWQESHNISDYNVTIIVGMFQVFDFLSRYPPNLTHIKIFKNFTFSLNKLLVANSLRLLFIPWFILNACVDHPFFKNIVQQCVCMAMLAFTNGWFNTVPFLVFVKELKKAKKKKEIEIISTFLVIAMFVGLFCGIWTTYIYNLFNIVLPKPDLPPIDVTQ

## N[C@@H](Cc1ccc(O)cc1)C(=O)O [L-tyrosine]
non-expressing oocytes [1]; [11]
  inhibition at 500 µM: 2.5 ± 0.03%
  inhibition at 1000 µM: 4.2 ± 0.03%
  inhibition at 2000 µM: 2.9 ± 0.04%
non-expressing oocytes [1]; [12]
  inhibition at 500 µM: 96 ± 4.2%
  inhibition at 1000 µM: 99 ± 5.3%
  inhibition at 2000 µM: 101 ± 3.9%
PfCRT^3D7 [2]; [13]
  inhibition at 500 µM: 99 ± 4.7%
  inhibition at 1000 µM: 101 ± 3.8%
  inhibition at 2000 µM: 99 ± 4.7%
PfCRT^3D7 [2]; [14]
  inhibition at 500 µM: 2.8 ± 0.07%
  inhibition at 1000 µM: 2.5 ± 0.04%
  inhibition at 2000 µM: 3.1 ± 0.03%
PfCRT^Dd2 [3]; [15]
  inhibition at 500 µM: 94 ± 4.6%
  inhibition at 2000 µM: 97 ± 3.5%
PfCRT^Dd2 [3]; [16]
  inhibition at 500 µM: 96 ± 3.2%
  inhibition at 1000 µM: 98 ± 2.3%
  inhibition at 2000 µM: 99 ± 1.4%
PfCRT^Ecu1110 [4]; [17]
  inhibition at 500 µM: 96 ± 5.3%
  inhibition at 2000 µM: 95 ± 3.4%
PfCRT^Ecu1110 [4]; [18]
  inhibition at 500 µM: 32 ± 1%
  inhibition at 1000 µM: 32 ± 1.1%
  inhibition at 2000 µM: 32 ± 1.7%
PfCRT^Ecu1110 [4]; [19]
  inhibition at 500 µM: 99 ± 1.4%
  inhibition at 1000 µM: 101 ± 1.4%
  inhibition at 2000 µM: 97 ± 1.5%
PfCRT^Ecu1110 [4]; [20]
  inhibition at 500 µM: 29 ± 0.7%
  inhibition at 1000 µM: 29 ± 1.5%
  inhibition at 2000 µM: 29 ± 0.5%
non-expressing oocytes [5]
  Uptake of [3H]CQ (% non-expressing oocyte control), trans-stimulation: 99 ± 3.3 % non-expressing oocyte control and 98 ± 4.2 % non-expressing oocyte control
non-expressing oocytes [5]; SEM
  Uptake of [3H]CQ (% PfCRTDd2 control), trans-stimulation, non-expressing oocytes: 2.4 ± 0.01 % PfCRTDd2 control and 2.5 ± 0.01 % PfCRTDd2 control
PfCRT^3D7 [6]; SEM
  [3H]CQ transport (% PfCRT3D7 control), trans-stimulation, PfCRT3D7: 0.3 ± 0.04 % PfCRT3D7 control
PfCRT^3D7 [6]; [21]
  activity at 5000 µM: 97 ± 3.4%
  activity at 45000 µM: 98 ± 2.2%
PfCRT^3D7 [6]; [22]
  activity at 5000 µM: 99 ± 2.2%
  activity at 45000 µM: 100 ± 2.4%
PfCRT^3D7 [6]; [23]
  activity at 5000 µM: 3.3 ± 0.04%
  activity at 45000 µM: 3.3 ± 0.01%
PfCRT^Dd2 [7]; pH 5.5, read-out: PfCRT-mediated [3H]CQ transport, trans-stimulation (% PfCRTDd2 control), [test solute]i = 5 mM (intracellular), PfCRTDd2 oocytes, normalised to oocyte type control
  activity at 5000 µM: 99 ± 2.6%
PfCRT^Dd2 [7]; pH 5.5, read-out: Uptake of [3H]CQ (% PfCRTDd2 control), trans-stimulation, PfCRTDd2, total [3H]CQ transport, [test solute]i = 5 mM (intracellular), mean ± SEM, SEM
  activity at 5000 µM: 101 ± 3.3%
PfCRT^Dd2 [7]; pH 5.5, read-out: Uptake of [3H]CQ (% PfCRTDd2 control), trans-stimulation, PfCRTDd2 oocytes, [test solute]i = 5 mM, total [3H]CQ transport, normalised to the oocyte type control
  activity at 5000 µM: 101 ± 3.3%
PfCRT^Dd2 [7]; pH 5.5, read-out: Uptake of [3H]CQ (% PfCRTDd2 control), trans-stimulation, PfCRTDd2 oocytes, total [3H]CQ transport, normalised to the oocyte type control
  activity at 45000 µM: 96 ± 2.4%
PfCRT^Dd2 [7]; pH 5.5, read-out: [3H]CQ transport (% PfCRTDd2 control), trans-stimulation, PfCRTDd2, trans-stimulation, [test solute]i = 5 mM (injected), PfCRT-mediated component (background subtracted), mean ± SEM, SEM
  activity at 5000 µM: 99 ± 2.6%
PfCRT^Dd2 [7]; pH 5.5, read-out: [3H]CQ transport (% PfCRTDd2 control), trans-stimulation, PfCRTDd2, trans-stimulation, PfCRT-mediated component (background subtracted), mean ± SEM, SEM
  activity at 45000 µM: 94 ± 3.3%
PfCRT^Ecu1110 [8]; pH 5.5, read-out: PfCRT-mediated [3H]CQ transport, trans-stimulation (% PfCRTEcu1110 control), [test solute]i = 5 mM (intracellular), PfCRTEcu1110 oocytes, normalised to oocyte type control
  activity at 5000 µM: 97 ± 1.8%
PfCRT^Ecu1110 [8]; pH 5.5, read-out: Uptake of [3H]CQ (% PfCRTEcu1110 control), trans-stimulation, PfCRTEcu1110 oocytes, [test solute]i = 5 mM, total [3H]CQ transport, normalised to the oocyte type control
  activity at 5000 µM: 99 ± 2.6%
PfCRT^Ecu1110 [8]; pH 5.5, read-out: Uptake of [3H]CQ (% PfCRTEcu1110 control), trans-stimulation, PfCRTEcu1110 oocytes, [test solute]i = 45 mM (30 mM for some solutes due to solubility), total [3H]CQ transport, normalised to the oocyte type control
  activity at 45000 µM: 100 ± 3.1%
PfCRT^Ecu1110 [8]; read-out: Uptake of [3H]CQ (% PfCRTDd2 control), trans-stimulation, PfCRTEcu1110, total [3H]CQ transport, [test solute]i = 5 mM (intracellular), mean ± SEM, SEM
  activity at 5000 µM: 35 ± 2.1%
PfCRT^Ecu1110 [8]; read-out: Uptake of [3H]CQ (% PfCRTDd2 control), trans-stimulation, PfCRTEcu1110, total [3H]CQ transport, [test solute]i = 45 mM (intracellular; 30 mM for some solutes due to solubility), mean ± SEM, SEM
  activity at 45000 µM: 36 ± 1.8%
PfNT1; [24]
  activity at 5000 µM: 2.2 ± 0.02%
  activity at 45000 µM: 2.2 ± 0.02%
PfNT1; [25]
  activity at 5000 µM: 100 ± 3.7%
  activity at 45000 µM: 99 ± 2.2%
PfCRT [9]
  Compounds that have been tested as potential co-substrates but are not required for influx of VF-6 via PfCRT into the oocyte: X
PfCRT [10]
  Tested as potential co-substrate but not required for influx of VF-6 via PfCRT into the oocyte: X
